From paper PMC9538944, “In vitro biotransformation assays using fish liver cells: Comparing rainbow trout and carp hepatocytes” (Frontiers in Toxicology, 2022)
Marks after values point to notes of the source that are not given here.

How the values were obtained:
common carp hepatocytes = experiment: In vitro hepatocyte clearance assay (substrate depletion), carp; format: in vitro ADME, Cyprinus carpio; conditions: 20 °C, 2 µM MXC / 0.5 µM BaP, mean over in vitro runs
Procedure: (§1) Isolation of hepatocytes from liver of rainbow trout was performed by a two-step collagenase perfusion procedure which is well established for rainbow trout ([Nabb et al., 2006]; [Fay et al., 2015]). […] In previous studies with common carp, an in vitro digestion method was used to isolate hepatocytes ([Cowan-Ellsberry et al., 2008]; [Dyer et al., 2008]). Here, we adopted the method of [Segner et al. (1993)] who used a two-step collagenase perfusion of carp liver via the Arteria coeliaca for cell isolation. With the perfusion method, the percentage of pancreatic cells in the final cell suspension is typically <5% ([Vogt and Segner, 1997]). Cryopreservation and thawing procedures applied for hepatocytes of both species were based on the standard protocols for rainbow trout ([Fay et al., 2014a]; [Fay et al., 2014b]). The viability of the cells was determined by means of the trypan blue exclusion assay and counting of stained and non-stained cells in a hemocytometer. The carp and trout primary hepatocyte suspensions used in the present study were aliquots of the in vitro preparations used in a previous study investigating the in vitro metabolite patterns of MXC ([Bischof et al., 2016]). A detailed description of the methods and materials used for the preparation of hepatocyte suspensions including the procedures for cell isolation, cryopreservation, and thawing, as well as cell counting, diluting to the target cell concentration, and heat-inactivating can therefore be taken from [Bischof et al. (2016)] and from the cited publications.
(§2) The in vitro hepatocyte clearance experiments were performed in a substrate depletion approach according to the methods previously published by [Fay et al. (2014b)]. These methods are in accordance with the procedures provided in the OECD TG 319A on the performance of in vitro hepatocyte clearance assays. In the present study, several in vitro runs with MXC and BaP using suspensions of either freshly isolated or cryopreserved hepatocytes from common carp and rainbow trout were carried out. For the different in vitro runs non-pooled hepatocytes were used, i.e. hepatocytes from different individual fish. For each run, triplicates of live cells (3 × 1 ml at nominal 2 × 10^6 cells/mL) and heat-inactivated cells as controls were dosed with the test chemical dissolved in acetonitrile (ACN) at the targeted concentration (2 µM for MXC and 0.5 µM for BaP) and incubated for 4 h at 15 °C (trout) or 20 °C (carp). MXC and BaP reactions were run side by side in the same in vitro run using the same hepatocyte suspensions. […]
(§3) Measured values of parent chemical concentration were log10-transformed and plotted against time. […]

[1] = test system: rainbow trout hepatocytes; experiment: In vitro hepatocyte clearance assay (substrate depletion), trout; format: in vitro ADME, Oncorhynchus mykiss; conditions: 15 °C, 4 h, 2 µM MXC / 0.5 µM BaP, mean over in vitro runs
Procedure: as §1, §2, §3

[2] = set-up: method as in Fay et al., 2014b; conditions: ref Fay et al., 2014b; cited from earlier work
[3] = cryopreserved carp hepatocytes, 4 h time point excluded
[4] = freshly isolated carp hepatocytes, 4 h, nominal 2 × 10^6 cells/mL
[5] = cryopreserved trout hepatocytes
[6] = freshly isolated trout hepatocytes

Structure (SMILES) | Mean in vitro intrinsic clearance (CLin vitro, int) (common carp hepatocytes; [3]) | Mean in vitro intrinsic clearance (CLin vitro, int) (common carp hepatocytes; [4]) | Mean in vitro intrinsic clearance (CLin vitro, int) [1, 5] | Mean in vitro intrinsic clearance (CLin vitro, int) [1, 6] | log KOW [2]
COc1ccc(C(c2ccc(OC)cc2)C(Cl)(Cl)Cl)cc1 [MXC, methoxychlor] | 0.204 mL/h/10^6 cells | 0.287^* mL/h/10^6 cells | 0.283 mL/h/10^6 cells | 0.250 mL/h/10^6 cells | 5.08
c1ccc2c(c1)cc1ccc3cccc4ccc2c1c34 [BaP, benzo[a]pyrene] | 0.287 mL/h/10^6 cells | 0.198^* mL/h/10^6 cells | 0.243 mL/h/10^6 cells | 0.251 mL/h/10^6 cells | 5.99
